In patent US6846840B2, “Cytotoxic N-unsubstituted indoles and cyclopent(B)indoles and method of making and using same” (Arizona Board of Regents acting for and on behalf of …, priority 1999, dated 2005):
Read-outs that look alike come from different tables or passages of the source.

Experiments:
[1] = system: LEUKEMIA cancer cell lines; settings: log of concentration causing 50% lethality; arithmetic average of six to eight leukemia cell lines
[2] = system: NSC LUNG cancer cell lines; settings: log of concentration causing 50% lethality; arithmetic average of six to eight NSC lung cell lines
COLON cancer cell lines = settings: log of concentration causing 50% lethality; arithmetic average of six to eight colon cell lines
CNS cancer cell lines = settings: log of concentration causing 50% lethality; arithmetic average of six to eight CNS cell lines
[3] = system: MELANOMA cancer cell lines; settings: log of concentration causing 50% lethality; arithmetic average of six to eight melanoma cell lines
[4] = system: OVARIAN cancer cell lines; settings: log of concentration causing 50% lethality; arithmetic average of six to eight ovarian cell lines
Procedure: (§1) For each histologic cancer type, the average −log LC50 value was determined from an NCI panel consisting of six to eight human cancer cell lines. {Paull, D. K.; Shoemaker, R. H.; Hodes, L.; Monks, A.; Scudiero, D. A.; Rubinstein, L.; Plowman, J.; Boyd, M. R. Display and Analysis of Differential Activity of Drugs Against Human Tumor Cell Lines: Development of Mean Graph and COMPARE Algorithm.

RENAL cancer cell lines = settings: log of concentration causing 50% lethality; arithmetic average of six to eight renal cell lines
Procedure: as §1

[5] = system: PROSTATE cancer cell lines; settings: log of concentration causing 50% lethality; arithmetic average of six to eight prostate cell lines
Procedure: as §1

BREAST cancer cell lines = settings: log of concentration causing 50% lethality; arithmetic average of six to eight breast cell lines
Procedure: as §1

B-16 melanoma = settings: for area under the tumor-growth curve (AUC): control 11.39; for in vivo activity (effect on tumor mass), in words: B16 syngraft, dosing on days 1, 5, and 9 after implantation of 10^5 cells
Procedure: This compound was studied at three dose levels: 2, 3 and 5 mg/Kg IP on days 1, 5, and 9 after tumor implantation into the front flank muscle. Shown in the plot are the AUC values as a function of time for each dosage. The control was obtained with drug-free animals.

rat liver DT-diaphorase = biological target: T1, rat liver DT-diaphorase (Rattus norvegicus, UniProt P05982); settings: FIG. 2
T1 sequence (P05982 2-274 limits assumed): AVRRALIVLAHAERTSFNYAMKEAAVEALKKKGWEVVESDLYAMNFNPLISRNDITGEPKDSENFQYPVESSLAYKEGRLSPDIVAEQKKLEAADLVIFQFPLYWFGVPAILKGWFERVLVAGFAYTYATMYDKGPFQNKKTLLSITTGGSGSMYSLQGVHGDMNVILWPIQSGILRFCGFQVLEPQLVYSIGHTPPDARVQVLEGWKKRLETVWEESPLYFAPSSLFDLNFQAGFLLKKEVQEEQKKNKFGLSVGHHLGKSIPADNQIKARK

600 bp calf thymus DNA = test: Alkylation of DNA by reduced indoloquinones; settings: FIG. 2
[6] = 1 mg/Kg IP on days 1, 5, and 9 after tumor implantation
[7] = 3 mg/Kg IP on days 1, 5, and 9 after tumor implantation

Row | Structure (SMILES) | Log LC50 [1] | Log LC50 [2] | Log LC50 (COLON cancer cell lines) | Log LC50 (CNS cancer cell lines) | Log LC50 [3] | Log LC50 [4] | Log LC50 (RENAL cancer cell lines) | Log LC50 [5] | Log LC50 (BREAST cancer cell lines) | area under the tumor-growth curve (AUC) (B-16 melanoma; [6]) | area under the tumor-growth curve (AUC) (B-16 melanoma; [7]) | in vivo activity (effect on tumor mass), in words (B-16 melanoma) | DT-diaphorase substrate activity, in words (rat liver DT-diaphorase) | % reductive alkylation of DNA, in words (600 bp calf thymus DNA)
1 | CC(=O)OCc1[nH]c2c(c1C)C(=O)C(C)=C(N1CC1)C2=O [Indole 2c, 2-(Acetoxymethyl)-6-aziridinyl-3,5-dimethylindole-4,7-dione] | >−4 moles/liter | −4.1 moles/liter | >−4 moles/liter | >−4 moles/liter | −4.15 moles/liter | >−4 moles/liter | −4.14 moles/liter | >−4 moles/liter | >−4 moles/liter | 13.83 | 8.59 | inactive at both concentrations | – | –
2 | CC1=C(N2CC2)C(=O)c2[nH]c3c(c2C1=O)CCC3=O [Cyclopent[b]indole 3e, 6-Aziridinyl-1,4-dihydro-7-methyl-(2H) cyclopent [b]indole-3,5,8-trione] | >−4 moles/liter | −5.37 moles/liter | −5.44 moles/liter | −5.13 moles/liter | −5.99 moles/liter | −4.86 moles/liter | −5.34 moles/liter | −4.8 moles/liter | −4.9 moles/liter | – | – | completely inactive | – | –
3 | CC(=O)OC1CCc2c3c(n(C(C)=O)c21)C(=O)C(N1CC1)=C(C)C3=O (centres unmarked) [Cyclopent[b]indole 14, 3-Acetoxy-4-acetyl-6-aziridinyl-1,4-Dihydro-7-methyl-(2H) cyclopent[b]indole-5,8-dione] | >−4 moles/liter | −4.42 moles/liter | −4.77 moles/liter | −4.75 moles/liter | −5.06 moles/liter | −4.18 moles/liter | −4.78 moles/liter | −4.71 moles/liter | −4.5 moles/liter | – | – | enhances antitumor activity greatly | excellent substrate for DT-diaphorase | readily alkylates DNA
4 | CC1=C(N2CC2)C(=O)c2c([nH]c(C)c2C)C1=O [Indole 1a, 5-Aziridinyl-2,3,6-trimethylindole-4,7-dione] | >−4 moles/liter | −4.29 moles/liter | >−4 moles/liter | >−4 moles/liter | −4.42 moles/liter | >−4 moles/liter | >−4 moles/liter | >−4 moles/liter | >−4 moles/liter | – | – | – | – | –
5 | CC1=C(N2CC2)C(=O)c2[nH]c(CO)c(C)c2C1=O [Indole 2b, 6-Aziridinyl-2-(hydroxymethyl)-3,5-dimethylindole-4,7-dione] | >−4 moles/liter | −4.1 moles/liter | −4.2 moles/liter | −4.05 moles/liter | −4.4 moles/liter | >−4 moles/liter | −4.23 moles/liter | −4.2 moles/liter | −4.05 moles/liter | – | – | – | – | –
6 | CC1=C(N2CC2)C(=O)c2[nH]c3c(c2C1=O)CCC3O (centres unmarked) [Cyclopent[b]indole 3b, 6-Aziridinyl-1,4-Dihydro-3-hydroxy-7-methyl-(2H) cyclopent[b]indole-5,8-dione] | −4.06 moles/liter | −4.22 moles/liter | −4.45 moles/liter | −4.54 moles/liter | −4.85 moles/liter | −4.05 moles/liter | −4.73 moles/liter | −4.5 moles/liter | −4.47 moles/liter | – | – | – | – | –
7 | COC1CCc2c1[nH]c1c2C(=O)C(C)=C(N2CC2)C1=O (centres unmarked) [Cyclopent[b]indole 3d, 6-Aziridinyl-1,4-dihydro-3-methoxy-7-methyl-(2H) cyclopent[b]indole-5,8-dione] | −4.06 moles/liter | −4.2 moles/liter | −4.318 moles/liter | −4.17 moles/liter | −4.92 moles/liter | >−4 moles/liter | −4.58 moles/liter | −4.46 moles/liter | −4.33 moles/liter | – | – | – | – | –
8 | CC(=O)OC1CCc2c1[nH]c1c2C(=O)C(C)=C(N2CC2)C1=O (centres unmarked) [Cyclopent[b]indole 3c, 3-Acetoxy-6-aziridinyl-1,4-dihydro-7-methyl-(2H) cyclopent [b]indole-5,8-dione] | −4.3 moles/liter | −4.65 moles/liter | −4.85 moles/liter | −4.7 moles/liter | −4.99 moles/liter | −4.366 moles/liter | −4.72 moles/liter | −4.63 moles/liter | −4.53 moles/liter | 6.67 | 6.92 | reduce the tumor mass substantially | – | highest % alkylation of DNA
9 | CC1=C(N2CC2)C(=O)c2c([nH]c(CO)c2C)C1=O [Indole 1b, 5-Aziridinyl-2-(hydroxymethyl)-3,6-dimethylindole-4,7-dione] | >−4 moles/liter | −4.37 moles/liter | −4.32 moles/liter | >−4 moles/liter | −5.39 moles/liter | >−4 moles/liter | −4.53 moles/liter | −4.78 moles/liter | −4.56 moles/liter | – | – | – | – | –
10 | CC(=O)OCc1[nH]c2c(c1C)C(=O)C(N1CC1)=C(C)C2=O [Indole 1c, 2-(Acetoxymethyl)-5-aziridinyl-3,6-dimethylindole-4,7-dione] | >−4 moles/liter | −4.48 moles/liter | −5.08 moles/liter | −4.83 moles/liter | −5.64 moles/liter | −4.46 moles/liter | −4.54 moles/liter | −5.01 moles/liter | −4.57 moles/liter | 10.94 | 15.82 | decreased tumor mass only at the 3 mg/kg dose | – | –
